The values below come from patent US20250388551A1, “COMPOUNDS INDUCING PRODUCTION OF PROTEINS BY IMMUNE CELLS” (UNIVERSITE PARIS CITE, priority 2022, published 2025).

The structures appear in SMILES notation.

The test system of this assay is human B cells. Description: IL-10 induction in human B cells cultivated with anti-IgM plus CpG. It is filed as cell-based. The following applies: B-cell, 48 h, 2 days, IL-10 in cell culture supernatants, read-out: IL-10 mean induction fold in human B cells treated with compound compared to DMSO control. The protocol:
Human B cells isolated magnetically through negative selection (B Cell Isolation Kit II, human, Miltenyi ref: 130-091-151) were cultivated for 2 consecutive days in the presence of anti-IgM plus CpG in the presence of the indicated molecule (see table 1) at 0.25 μM final concentration, or DMSO as control. IL-10 was measured in cell culture supernatants, and the IL-10 induction fold was calculated for each molecule compared to the DMSO control.
Human B cells isolated magnetically through negative selection (B Cell Isolation Kit II, human, Miltenyi ref: 130-091-151) were cultivated for 2 consecutive days in the presence of anti-IgM plus CpG in the presence of DMSO (as control) or in the presence of the tested molecule at 0.25 μM final concentration. IL-10 was measured in cell culture supernatants. NS: non stimulated B cell culture condition.

On to `COc1cccc(F)c1C(=O)Nc1ccc2[nH]c(-c3ccc(F)cc3)nc2c1` [Compound 1, 2-Fluoro-N-[2-(4-fluorophenyl)-1H-benzimidazol-6-yl]-6-methoxybenzamide], for which the fold induction at 0.25 µM turned out to be 1.91.
As to `CN(C)S(=O)(=O)c1cc(C(=O)Nc2ccc3[nH]c(-c4ccc(F)cc4)nc3c2)ccc1Cl` [Compound 4, 4-Chloro-3-[(dimethylamino)sulfonyl]-N-[2-(4-fluorophenyl)-1H-benzimidazol-6-yl]benzamide], the fold induction at 0.25 µM was found to be 1.49.
Consider `O=C(Nc1ccc(-c2nc3ccc(NC(=O)c4ccc(/N=C/c5ccccc5O)cc4)c(Cl)c3[nH]2)cc1)c1ccc(/N=C/c2ccccc2O)cc1` [Compound 22, N-[4-(7-chloro-6-{[(4-{[(E)-(2-hydroxyphenyl)methylidene]amino}phenyl)carbonyl]amino}-1H-benzimidazol-2-yl)phenyl]-4-{[(E)-(2-hydroxyphenyl)methylidene]amino} benzamide], for which the fold induction at 0.25 µM came out at 1.34.
Consider `Cc1ccc(-c2nn3c4ccc(NC(=O)c5ccccc5I)cc4nc3c3ccccc23)cc1` [Compound 30, 2-lodo-N-[5-(4-methyl-phenyl)benzimidazo[2,1-a]phthalazin-10-yl]benzamide], for which the fold induction at 0.25 µM amounted to 1.37.
The same measure for `Cc1ccc(-c2nn3c4ccc(NC(=O)c5ccccc5)cc4nc3c3ccccc23)cc1` [Compound 31, N-[5-(4-Methylphenyl)benzimidazo [2,1-a]phthalazin-10-yl]benzamide]: 1.72; for `COc1ccccc1C(=O)Nc1ccc2c(c1)nc1c3ccccc3c(-c3ccc(C)cc3)nn21` [Compound 32, 2-Methoxy-N-[5-(4-methylphenyl)benzimidazo [2,1-a]phthalazin-10-yl]benzamide]: 1.42; for `COc1ccccc1C(=O)Nc1ccc2c(c1)nc1c3ccccc3c(C)nn21` [Compound 40, 2-Methoxy-N-(5-methylbenzimidazo[2,1-a]phthalazin-10-yl)benzamide]: 1.72.
In the case of `O=C(Nc1ccc2c(c1)nc1c3ccccc3c(-c3ccc(Cl)cc3)nn21)c1ccccc1` [Compound 43, N-[5-(4-Chloro-phenyl)benzimidazo[2,1-a]phthalazin-10-yl]benzamide], the fold induction at 0.25 µM worked out at 1.3.
As for `CSc1ccccc1C(=O)Nc1ccc2[nH]c(-c3cccc(F)c3)nc2c1` [Compound 52, N-[2-(3-Fluorophenyl)-1H-benzimidazol-6-yl]-2-(methylthio)benzamide], the fold induction at 0.25 µM came out at 1.91.
As to `O=C(Nc1ccc2[nH]c(-c3ccc(F)cc3)nc2c1)c1cc(F)cc2nccnc12` [Compound 54, 7-Fluoro-N-[2-(4-fluorophenyl)-1H-benzimidazol-6-yl]-5-quinoxalinecarboxamide], the fold induction at 0.25 µM worked out at 1.71.
As for `O=C(Nc1ccc2[nH]c(-c3cc(F)ccc3F)nc2c1)c1cc(F)cc2nccnc12` [Compound 56, N-[2-(2,5-Difluorophenyl)-1H-benzimidazol-6-yl]-7-fluoro-5-quinoxalinecarboxamide], the fold induction at 0.25 µM amounted to 1.76.
For `O=C(Nc1ccc2[nH]c(-c3cccc(F)c3)nc2c1)c1ccc(-n2cc[nH]c2=S)cc1` [Compound 57, N-[2-(3-fluorophenyl)-1H-benzimidazol-5-yl]-4-(2-sulfanylidene-3H-imidazol-1-yl)benzamide], the fold induction at 0.25 µM came out at 1.33.
As for `O=C1CCSc2ccc(C(=O)Nc3ccc4[nH]c(-c5cccc(F)c5)nc4c3)cc2N1` [Compound 58, N-[2-(3-fluorophenyl)-1H-benzimidazol-5-yl]-4-oxo-3,5-dihydro-2H-1,5-benzothiazepine-7-carboxamide], the fold induction at 0.25 µM was 1.56.
In the case of `O=C(Nc1ccc2[nH]c(-c3ccccc3Cl)nc2c1)c1ccccc1N1CCOCC1` [Compound 61, N-[2-(2-Chlorophenyl)-1H-benzimidazol-6-yl]-2-(4-morpholinyl)benzamide], the fold induction at 0.25 µM is 2.18.
Regarding `Nc1ccc(C(=O)Nc2ccc(-c3nc4cc(NC(=O)c5ccc(N)cc5)c(Cl)cc4[nH]3)cc2)cc1` [Compound 67, 4-Amino-N-[4-[5-[(4-aminobenzoyl)amino]-6-chloro-1H-benzimidazol-2-yl]phenyl]benzamide], the fold induction at 0.25 µM came out at 1.84.
In the case of `O=C(Nc1ccc2[nH]c(-c3cccnc3)nc2c1)c1ccccc1` [Compound 107, N-[2-(3-Pyridinyl)-1H-benzimidazol-6-yl]benzamide], the fold induction at 0.25 µM amounted to 1.33.
The same measure for `Fc1cccc(-c2nc3cc(Br)ccc3[nH]2)c1` [Compound 110, 6-Bromo-2-(3-fluorophenyl)-1H-benzimidazole]: 1.43.
As to `Fc1ccc(-c2nc3cc(Br)ccc3[nH]2)cc1` [Compound 111, 6-Bromo-2-(4-fluorophenyl)-1H-benzimidazole], the fold induction at 0.25 µM is 1.56.
For `O=C(Nc1ccc2nc(-c3ccc(F)cc3)[nH]c2c1)c1ccccc1` [Compound 116, N-[2-(4-Fluorophenyl)-1H-benzimidazol-6-yl]benzamide], the fold induction at 0.25 µM turned out to be 1.48.
Take `O=C(Nc1ccc2nc(-c3cccc(F)c3)[nH]c2c1)c1ccccc1` [Compound 117, N-(2-(3-fluorophenyl)-1H-benzo[d]imidazol-6-yl)benzamide]: the fold induction at 0.25 µM worked out at 1.93.
With `O=C(Nc1ccc2nc(-c3ccccc3F)[nH]c2c1)c1ccccc1` [Compound 120, N-(2-(2-fluorophenyl)-1H-benzo[d]imidazol-6-yl)benzamide], the fold induction at 0.25 µM stood at 1.68.
Consider `COc1ccccc1C(=O)Nc1ccc2nc(-c3cccnc3)[nH]c2c1` [Compound 124, 2-Methoxy-N-[2-(3-pyridinyl)-1H-benzimidazol-6-yl]benzamide], for which the fold induction at 0.25 µM worked out at 3.5.
For `Fc1ccccc1-c1nc2ccc(Br)cc2[nH]1` [Compound 136, 6-bromo-2-(2-fluorophenyl)-1H-Benzimidazole], the fold induction at 0.25 µM was determined as 2.88.
With `COc1ccccc1C(=O)Nc1ccc2nc(-c3ccc(F)cc3)[nH]c2c1` [Compound 145, N-(2-(4-fluorophenyl)-1H-benzo[d]imidazol-6-yl)-2-methoxybenzamide], the fold induction at 0.25 µM worked out at 1.59.
The same measure for `COc1ccccc1C(=O)Nc1ccc2nc(-c3cccc(F)c3)[nH]c2c1` [Compound 153, N-(2-(3-fluorophenyl)-1H-benzo[d]imidazol-6-yl)-2-methoxybenzamide]: 1.38; for `COc1ccccc1C(=O)Nc1ccc2nc(-c3ccccc3F)[nH]c2c1` [Compound 157, N-(2-(2-fluorophenyl)-1H-benzo[d]imidazol-6-yl)-2-methoxybenzamide]: 1.61; for `COc1ccccc1NC(=O)c1ccc2nc(-c3ccccc3)[nH]c2c1` [Compound 366, N-(2-methoxyphenyl)-2-phenyl-1H-benzo[d]imidazole-6-carboxamide]: 1.95.
In the case of `COc1ccccc1NC(=O)c1ccc2nc(-c3ccccc3F)[nH]c2c1` [Compound 371, 2-(2-fluorophenyl)-N-(2-methoxyphenyl)-1H-benzo[d]imidazole-6-carboxamide], the fold induction at 0.25 µM amounted to 1.84.
Turning to `COc1ccccc1NC(=O)c1ccc2nc(-c3cccnc3)[nH]c2c1` [Compound 375, N-(2-methoxyphenyl)-2-(pyridin-3-yl)-1H-benzo[d]imidazole-6-carboxamide], the fold induction at 0.25 µM was determined as 1.6.
With `O=C(Nc1ccc2[nH]c(-c3ccccc3)nc2c1)c1ccccc1` [Compound N4, N-(2-Phenyl-1H-benzimidazol-6-yl)benzamide], the fold induction at 0.25 µM amounted to 1.61.
